Where only a bound is given, the exact number is not on record here.

In this experiment the target is T1, GST fusion protein containing the Met kinase domain (Homo sapiens, UniProt P08581).
T1 construct: Purified GST fusion protein containing the Met kinase domain, Sugen, Inc
T1 sequence (P08581 1078-1345 limits assumed): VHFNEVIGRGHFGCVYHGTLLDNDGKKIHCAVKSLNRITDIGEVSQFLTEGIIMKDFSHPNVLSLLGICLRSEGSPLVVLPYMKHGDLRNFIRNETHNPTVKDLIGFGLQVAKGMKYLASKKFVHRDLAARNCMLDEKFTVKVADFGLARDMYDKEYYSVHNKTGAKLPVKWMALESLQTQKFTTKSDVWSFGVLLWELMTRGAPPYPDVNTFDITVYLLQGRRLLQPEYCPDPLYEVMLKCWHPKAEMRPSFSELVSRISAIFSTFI
In words: MET Transphosphorylation Assay (ELISA, poly(Glu,Tyr) 4:1 substrate). It is filed as biochemical. To be noted: met transphosphorylation of poly(glutamic acid:tyrosine 4:1) substrate; two values in a cell separated by '/'. The procedure: MET Transphosphorylation Assay
This assay is used to measure phosphotyrosine levels on a poly(glutamic acid:tyrosine (4:1)) substrate as a means for identifying agonists/antagonists of met transphosphorylation of the substrate.
• 1. […] PBS, Gibco Catalog # 450-1300EB • 4. 50 mM HEPES • 5. […] Purified GST fusion protein containing the Met kinase domain, Sugen, Inc. • 7. TBST Buffer. • 8. 10% aqueous (MilliQue H2O) DMSO. • 9. […] 2× Kinase Dilution Buffer: for 100 ml, mix 10 mL 1M HEPES at pH 7.5 with 0.4 mL 5% BSA/PBS, 0.2 mL 0.1 M sodium orthovanadate and 1 mL 5M sodium chloride in 88.4 mL dH2O. • 11. 4×ATP Reaction Mixture: for 10 mL, mix 0.4 mL 1 M manganese chloride and 0.02 mL 0.1 M ATP in […] dH2O. • 12. 4× Negative Controls Mixture: for 10 mL, mix 0.4 mL 1 M manganese chloride in 9.6 mL dH2O.
13. […] 500 mM EDTA. • 15. Antibody Dilution Buffer: for 100 mL, mix 10 mL 5% BSA/PBS, 0.5 mL 5% Carnation Instant Milk® in PBS and 0.1 mL 0.1 M sodium orthovanadate in 88.4 mL TBST. • 16. Rabbit polyclonal antophosphotyrosine antibody, Sugen, Inc. • 17. Goat anti-rabbit horseradish peroxidase conjugated antibody, Biosource, Inc. • 18. ABTS Solution: for 1 L, mix 19.21 g citric acid, 35.49 g Na2HPO4 and 500 mg ABTS with sufficient dH2O to make 1 L. • 19. ABTS/H2O2: mix 15 mL ABST solution with 2 μL H2O2 five minutes before use. • 20. 0.2 M HCl Procedure: • 1. Coat ELISA plates with 2 μg Poly(Glu-Tyr) in 100 μL PBS, store overnight at 4° C. • 2. Block plate with 150 μL of 5% BSA/PBS for 60 min. • 3. Wash plate twice with PBS, once with 50 mM Hepes buffer pH 7.4. • 4. Add 50 μl of the diluted kinase to all wells. (Purified kinase is diluted with Kinase Dilution Buffer. Final concentration should be 10 ng/well.) • 5. Add 25 μL of the test compound (in 4% DMSO) or DMSO alone (4% in dH2O) for controls to plate. • 6. Incubate the kinase/compound mixture for 15 minutes. • 7. Add 25 μL of 40 mM MnCl2 to the negative control wells. • 8. Add 25 μL ATP/MnCl2 mixture to the all other wells (except the negative controls). Incubate for 5 min. • 9. Add 25 μL 500 mM EDTA to stop reaction. • 10. Wash plate 3× with TBST. • 11. Add 100 μL rabbit polyclonal anti-Ptyr diluted 1:10,000 in Antibody Dilution Buffer to each well. Incubate, with shaking, at room temperature for one hour. • 12. Wash plate 3× with TBST. • 13. […] Add 100 μL per well and incubate at room temperature, with shaking, for one hour. • 14. Wash plate 1× with PBS. • 15. Add 100 μl of ABTS/H2O2 solution to each well. • 16. If necessary, stop the development reaction with the addition of […] of 0.2M HCl per well. • 17.
For orientation: IC50 means the concentration that gives 50% inhibition. High values mean a need for much substance, low ones inhibition by little substance. Consider `CC(C(=O)N/N=C1\C(=O)Nc2ccc(Br)cc21)c1ccc2c(c1)OCO2` (stereo not drawn) [Example I-53, 2-Benzo[1,3]dioxol-5-yl-propionic acid [(3Z)-5-bromo-2-oxo-1,2-dihydro-indol-3-ylidene]-hydrazide], for which half-maximal inhibition (IC50) was put at 0.74 µM.

As for `CC(C(=O)N/N=C1\C(=O)Nc2ccc(NC(=O)CN3CCOCC3)cc21)c1ccc(F)cc1` (stereo not drawn) [Example I-54], inhibition was half-maximal at 5.92 µM (IC50).

In turn, `CC(C(=O)N/N=C1\C(=O)Nc2ccc(NC(=O)CN3CCCC3)cc21)c1ccc(F)cc1` (stereo not drawn) [Example I-55, N-((3Z)-3-{[2-(4-Fluoro-phenyl)-propionyl]-hydrazono}-2-oxo-2,3-dihydro-1H-indol-5-yl)-2-pyrrolidin-1-yl-acetamide] gave an IC50 of 6.16 µM.

In turn, `COC(=O)c1cccc2c1/C(=N/NC(=O)Cc1ccc(O)cc1)C(=O)N2` [Example I-56, (3Z)-3-{[2-(4-Hydroxy-phenyl)-acetyl]-hydrazono}-2-oxo-2,3-dihydro-1H-indole-4-carboxylic acid methyl ester] returned an IC50 of 0.54 µM.

As for `O=C1Nc2c(Cl)ccc(Cl)c2/C1=N/NC(=O)C1Cc2ccccc2C1` [Example I-57], the IC50 is more than 20 µM.

The compound `Cc1ccc(C)c2c1NC(=O)/C2=N\NC(=O)C1Cc2ccccc2C1` [Example I-58, Indan-2-carboxylic acid [(3Z)-4,7-dimethyl-2-oxo-1,2-dihydro-indol-3-ylidene]-hydrazide] came in with an IC50 of more than 20 µM.

As for `O=C1Nc2ccccc2/C1=N/NC(=O)C1Cc2ccccc2C1` [Example I-59, Indan-2-carboxylic acid [(3Z)-2-oxo-1,2-dihydro-indol-3-ylidene)-hydrazide], the IC50 was more than 20 µM.

In turn, `Cc1cc(CCN2CCCC2)c(C)c2c1NC(=O)/C2=N\NC(=O)C(C)c1ccc(F)cc1` (stereo not drawn) [Example I-62, 2-(4-Fluoro-phenyl)-propionic acid [(3Z)-4,7-dimethyl-2-oxo-5-(2-pyrrolidin-1-yl-ethyl)-1,2-dihydro-indol-3-ylidene]-hydrazide] yielded an IC50 of 0.98 µM.

Compound `CCN(CC)CCc1cc(C)c2c(c1C)/C(=N/NC(=O)C(C)c1ccc(F)cc1)C(=O)N2` (stereo not drawn) [Example I-63, 2-(4-Fluoro-phenyl)-propionic acid [(3Z)-5-(2-diethylamino-ethyl)-4,7-dimethyl-2-oxo-1,2-dihydro-indol-3-ylidene]-hydrazide] showed an IC50 of 1.05 µM.

Compound `O=C(Cc1ccccc1)N/N=C1\C(=O)Nc2ccccc21` [II-3, Phenyl-acetic acid [(3Z)-2-oxo-1,2-dihydro-indol-3-ylidene]-hydrazide] gave an IC50 of 6.66 µM.

Compound `O=C(Cc1ccc(Cl)cc1)N/N=C1\C(=O)Nc2ccccc21` [II-4, (4-Chloro-phenyl)-acetic acid [(3Z)-2-oxo-1,2-dihydro-indol-3-ylidene]-hydrazide] registered an IC50 of 5.87 µM.

`COc1ccc(CC(=O)N/N=C2\C(=O)Nc3ccccc32)cc1OC` [II-5, (3,4-Dimethoxy-phenyl)-acetic acid [(3Z)-2-oxo-1,2-dihydro-indol-3-ylidene]-hydrazide] registered an IC50 of more than 20 µM.

In turn, `O=C(Cc1ccccc1)N/N=C1\C(=O)Nc2ccccc21` [II-6, Phenyl-acetic acid [(3E)-2-oxo-1,2-dihydro-indol-3-ylidene]-hydrazide] yielded an IC50 of more than 20 µM.

For `O=C(Cc1ccc(Cl)cc1)N/N=C1\C(=O)Nc2ccccc21` [II-7, (4-Chloro-phenyl)-acetic acid [(3E)-2-oxo-1,2-dihydro-indol-3-ylidene]-hydrazide], the IC50 was more than 20 µM.

For the compound `CC(C)Oc1ccc(CC(=O)N/N=C2\C(=O)Nc3ccccc32)cc1` [II-9, (4-Isopropoxy-phenyl)-acetic acid [(3Z)-2-oxo-1,2-dihydro-indol-3-ylidene]-hydrazide], the IC50 was more than 20 µM.

With `CCOc1ccc(CC(=O)N/N=C2\C(=O)Nc3ccccc32)cc1` [II-10, (4-Ethoxy-phenyl)-acetic acid [(3Z)-2-oxo-1,2-dihydro-indol-3-ylidene]-hydrazide], the IC50 is more than 20 µM.

Consider `Cc1ccc(CC(=O)N/N=C2\C(=O)Nc3ccccc32)cc1` [II-11, p-Tolyl-acetic acid [(3Z)-2-oxo-1,2-dihydro-indol-3-ylidene]-hydrazide], for which the IC50 is more than 20 µM.

Compound `COc1cccc(CC(=O)N/N=C2\C(=O)Nc3ccccc32)c1` [II-12, (3-Methoxy-phenyl)-acetic acid [(3Z)-2-oxo-1,2-dihydro-indol-3-ylidene]-hydrazide] returned an IC50 of 7.2 µM.

`O=C(Cc1ccccc1Cl)N/N=C1\C(=O)Nc2ccccc21` [II-13, (2-Chloro-phenyl)-acetic acid [(3Z)-2-oxo-1,2-dihydro-indol-3-ylidene]-hydrazide] registered an IC50 of more than 20 µM.

`O=C(Cc1cccc(Cl)c1)N/N=C1\C(=O)Nc2ccccc21` [II-14, (3-Chloro-phenyl)-acetic acid [(3Z)-2-oxo-1,2-dihydro-indol-3-ylidene]-hydrazide]: 5.68 µM corresponded to half-maximal inhibition (IC50).

Compound `O=C(Cc1cccc(Cl)c1)N/N=C1\C(=O)Nc2ccc(Br)cc21` [II-15, (3-Chloro-phenyl)-acetic acid [(3Z)-5-bromo-2-oxo-1,2-dihydro-indol-3-ylidene]-hydrazide] had an IC50 of 13.7 µM.

Regarding `COc1ccc(CC(=O)N/N=C2\C(=O)Nc3ccc(Br)cc32)cc1OC` [II-16, (3,4-Dimethoxy-phenyl)-acetic acid [(3Z)-5-bromo-2-oxo-1,2-dihydro-indol-3-ylidene)-hydrazide], half-maximal inhibition (IC50) was put at 18.5 µM.

Compound `COc1ccc(C(C)C(=O)N/N=C2\C(=O)Nc3ccccc32)cc1` (stereo not drawn) [II-17] came in with an IC50 of 0.23 µM.

As for `CC(C(=O)N/N=C1\C(=O)Nc2ccccc21)c1ccc(O)cc1` (stereo not drawn) [II-18, 2-(4-Hydroxy-phenyl)-propionic acid [(3Z)-2-oxo-1,2-dihydro-indol-3-ylidene]-hydrazide], the IC50 is 0.03 µM.

Consider `O=C(Cc1ccc(O)cc1)N/N=C1\C(=O)Nc2ccc(F)cc21` [II-19, (4-Hydroxy-phenyl)-acetic acid [(3Z)-5-fluoro-2-oxo-1,2-dihydro-indol-3-ylidene]-hydrazide], for which the IC50 worked out at 0.029 µM.

Consider `O=C(Cc1ccc(O)cc1)N/N=C1\C(=O)Nc2ccc(Br)cc21` [II-20, (4-Hydroxy-phenyl)-acetic acid [(3Z)-5-bromo-2-oxo-1,2-dihydro-indol-3-ylidene]-hydrazide], for which the IC50 was 0.024 µM.

Compound `O=C(Cc1ccncc1)N/N=C1\C(=O)Nc2ccccc21` [II-21, Pyridin-4-yl-acetic acid [(3Z)-2-oxo-1,2-dihydro-indol-3-ylidene]-hydrazide] returned an IC50 of 3.1 µM.

With `Nc1ccc(CC(=O)N/N=C2\C(=O)Nc3ccccc32)cc1` [II-22], the half-inhibitory concentration (IC50) was more than 20 µM.

`O=C(Cc1ccc(O)cc1)N/N=C1\C(=O)Nc2ccccc21` [II-23, (4-Hydroxy-phenyl)-acetic acid [(3E)-2-oxo-1,2-dihydro-indol-3-ylidene]-hydrazide] came in with an IC50 of 0.52 µM.

`O=C(CCc1ccc(O)cc1)N/N=C1\C(=O)Nc2ccccc21` [II-24, 3-(4-Hydroxy-phenyl)-propionic acid [(3E)-2-oxo-1,2-dihydro-indol-3-ylidene]-hydrazide] yielded an IC50 of more than 20 µM.

`O=C(CCc1ccc(O)cc1)N/N=C1\C(=O)Nc2ccccc21` [II-25, 3-(4-Hydroxy-phenyl)-propionic acid [(3Z)-2-oxo-1,2-dihydro-indol-3-ylidene]-hydrazide] gave an IC50 of 6.35 µM.

`Cc1cc(C)c2c(c1)/C(=N/NC(=O)Cc1ccc(O)cc1)C(=O)N2` [II-26, (4-Hydroxy-phenyl)-acetic acid [(3Z)-5,7-dimethyl-2-oxo-1,2-dihydro-indol-3-ylidene]-hydrazide]: inhibition was half-maximal at 0.02 µM (IC50).

As for `O=C(Cc1ccc(F)cc1)N/N=C1\C(=O)Nc2ccccc21` [II-27, (4-Fluoro-phenyl)-acetic acid [(3Z)-2-oxo-1,2-dihydro-indol-3-ylidene]-hydrazide], the IC50 came to 2.15 µM.

The record behind these values is patent US20060009493A1, “Indolinone hydrazides as c-Met inhibitors” (Sugen, Inc., priority 2003, published 2006).
